Test results as given in the supplement of paper PMC10307832.

Assays:
Test in all cases: relative viability (nuclei count vs DMSO), 5 days (fraction); higher = more cells survive
AZD5582 + Alpelisib = compound: C[C@@H](C(=O)N[C@@H](C1CCCCC1)C(=O)N2CCC[C@H]2C(=O)N[C@@H]3[C@@H](CC4=CC=CC=C34)OCC#CC#CCO[C@@H]5CC6=CC=CC=C6[C@@H]5NC(=O)[C@@H]7CCCN7C(=O)[C@H](C8CCCCC8)NC(=O)[C@H](C)NC)NC [AZD5582] + Cc1nc(NC(=O)N2CCC[C@H]2C(N)=O)sc1-c1ccnc(C(C)(C)C(F)(F)F)c1 [Alpelisib] (partner 2 µM)
Summary of the method: (§1)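 Values are medians from duplicate plates. Each reflects relative viability, defined as the nuclei count of treated wells over that of vehicle wells. Lung cancer cell lines in 1536-well plates were pin-tool dosed one day after seeding with one drug alone or with a fixed anchor-drug dose plus five library-drug doses (not always all listed) in √10 steps, then fixed, stained and imaged at 4× after 5 days.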

AZD5582 + Dasatinib = compound: C[C@@H](C(=O)N[C@@H](C1CCCCC1)C(=O)N2CCC[C@H]2C(=O)N[C@@H]3[C@@H](CC4=CC=CC=C34)OCC#CC#CCO[C@@H]5CC6=CC=CC=C6[C@@H]5NC(=O)[C@@H]7CCCN7C(=O)[C@H](C8CCCCC8)NC(=O)[C@H](C)NC)NC [AZD5582] + Cc1nc(Nc2ncc(C(=O)Nc3c(C)cccc3Cl)s2)cc(N2CCN(CCO)CC2)n1 [Dasatinib] (partner 0.075 µM)
Summary of the method: as §1

Temozolomide + Foretinib = compound: Cn1nnc2c(C(N)=O)ncn2c1=O [Temozolomide] + COc1cc2c(Oc3ccc(NC(=O)C4(C(=O)Nc5ccc(F)cc5)CC4)cc3F)ccnc2cc1OCCCN1CCOCC1 [Foretinib] (partner 0.25 µM)
Summary of the method: as §1

[1] = compound: Cn1nnc2c(C(N)=O)ncn2c1=O [Temozolomide] + C[C@@H](Oc1cc(-c2cnn(C3CCNCC3)c2)cnc1N)c1c(Cl)ccc(F)c1Cl [Crizotinib] (partner 1 µM)
Summary of the method: as §1

| Cell Line | relative viability (AZD5582 + Alpelisib; first compound 0.001581 µM) | relative viability (AZD5582 + Alpelisib; first compound 0.005 µM) | relative viability (AZD5582 + Alpelisib; first compound 0.01581 µM) | relative viability (AZD5582 + Alpelisib; first compound 0.05 µM) | relative viability (AZD5582 + Dasatinib; first compound 0.001581 µM) | relative viability (AZD5582 + Dasatinib; first compound 0.005 µM) | relative viability (AZD5582 + Dasatinib; first compound 0.05 µM) | relative viability (Temozolomide + Foretinib; first compound 0.6325 µM) | relative viability (Temozolomide + Foretinib; first compound 2 µM) | relative viability (Temozolomide + Foretinib; first compound 6.325 µM) | relative viability (Temozolomide + Foretinib; first compound 20 µM) | relative viability ([1]; first compound 0.6325 µM) | relative viability ([1]; first compound 2 µM) | relative viability ([1]; first compound 6.325 µM) | relative viability ([1]; first compound 20 µM) | relative viability (AZD5582 + Dasatinib; first compound 0.01581 µM) | relative viability (Temozolomide + Foretinib; first compound 0.2 µM) | relative viability ([1]; first compound 0.2 µM) |
| --- | --- | --- | --- | --- | --- | --- | --- | --- | --- | --- | --- | --- | --- | --- | --- | --- | --- | --- |
| NCI-H322M | 0.796 | 1.03 | 0.515 | 0.889 | 0.314 | 0.285 | 0.269 | 0.937 | 1.12 | 0.982 | 0.864 | 0.976 | 1 | 0.882 | 0.715 | – | – | – |
| NCI-H358 | 0.725 | 1.02 | 0.89 | 1.02 | 0.158 | 0.193 | 0.166 | 0.707 | 0.614 | 0.657 | 0.541 | 0.62 | 0.686 | 0.552 | 0.559 | 0.265 | 0.477 | 0.785 |
| NCI-H441 | 0.511 | 0.709 | 0.594 | 0.615 | 0.591 | 0.726 | 0.508 | 0.937 | 1.15 | 1.02 | 1.07 | 0.824 | 0.775 | 0.766 | 0.78 | – | 1.12 | 0.717 |
| NCI-H460 | 0.401 | 0.445 | 0.536 | 0.621 | 0.439 | 0.578 | 0.362 | 0.967 | 1 | 0.96 | 1.11 | 0.784 | 0.973 | 0.861 | 0.888 | 0.429 | 0.988 | 0.963 |
| NCI-H520 | 0.97 | 0.89 | 0.838 | 1.07 | 0.202 | 0.227 | 0.178 | 0.842 | 0.704 | 0.689 | 0.769 | 0.955 | 0.811 | 0.939 | 0.947 | 0.206 | 0.908 | 0.763 |
| NCI-H596 | 0.554 | 0.33 | 0.538 | 0.304 | – | – | 0.233 | 0.925 | 0.997 | 0.451 | 0.818 | 0.978 | 1.06 | 1.04 | 0.884 | 0.617 | 0.952 | 1.07 |
| NCI-H647 | 0.957 | 0.943 | 1.19 | 1.11 | 0.175 | 0.187 | 0.207 | 1.3 | 1.13 | 0.702 | 0.302 | 1.1 | 1.09 | 0.85 | 0.318 | 0.119 | 1.16 | 1.3 |
| NCI-H650 | 1.06 | 0.934 | 0.997 | 0.863 | 0.447 | 0.418 | 0.308 | 0.991 | 1.06 | 1 | 1.07 | 0.697 | 0.607 | 0.725 | 0.669 | 0.305 | 0.898 | 0.679 |
| NCI-H661 | 0.592 | 0.524 | 0.557 | 0.521 | 0.866 | 1.15 | 0.873 | 1.01 | 1.05 | 0.955 | 0.963 | 0.93 | 0.942 | 0.944 | 1.02 | 0.908 | 0.941 | 0.828 |
| NCI-H727 | 0.578 | 0.627 | 0.441 | 0.556 | 0.317 | 0.319 | 0.274 | 0.791 | 0.99 | 0.705 | 0.702 | 0.73 | 0.812 | 0.791 | 0.763 | 0.505 | 0.835 | 0.876 |
| NCI-H838 | 0.89 | 0.97 | 0.907 | 1.18 | 0.293 | 0.344 | 0.191 | 0.939 | 1.02 | 0.994 | 1.09 | 0.888 | 0.894 | 0.808 | 0.869 | – | 1.01 | 0.876 |
| NCI-H1355 | 0.724 | 0.832 | 0.82 | 0.852 | 0.638 | 0.749 | 0.719 | 0.938 | 1.1 | 1 | 0.908 | 1.13 | 1.09 | 1.11 | 0.97 | 0.583 | 0.947 | 1.11 |
| NCI-H1437 | 0.968 | 0.967 | 0.875 | 1.04 | 0.289 | 0.452 | 0.414 | 1.25 | 1.27 | 1.26 | 1.31 | 1.03 | 0.968 | 0.995 | 0.999 | 0.387 | 1.27 | 0.94 |
| NCI-H1563 | 1.02 | 0.893 | 0.858 | 1.01 | 0.412 | 0.456 | 0.461 | 0.967 | 0.886 | 0.915 | 0.927 | 0.853 | 0.965 | 0.847 | 0.729 | 0.447 | 0.762 | 0.911 |
| NCI-H1651 | 1.03 | 1.02 | 0.855 | 1.15 | 0.428 | 0.478 | 0.552 | 0.725 | 0.782 | 0.759 | 0.839 | 0.869 | 0.818 | 0.85 | 0.864 | – | 0.914 | 0.8 |
| NCI-H1666 | 0.851 | 0.833 | 1.08 | 1.03 | 0.656 | 0.814 | 0.846 | 0.868 | 0.837 | 0.611 | 0.679 | 0.858 | 0.698 | 0.648 | 0.518 | 0.757 | 0.917 | 0.888 |
| NCI-H1734 | 0.729 | 0.761 | 0.705 | 0.903 | 0.468 | 0.548 | 0.664 | 0.929 | 0.959 | 0.754 | 0.859 | 0.704 | 0.684 | 0.647 | 0.656 | 0.434 | 0.874 | 0.707 |
